This is an account of results in patent US8906953B2, “Pyrrolidine substitute flavones for the treatment of inflammatory disorders” (Piramal Enterprises Limited, priority 2010, dated 2014).

Molecules are shown by their SMILES. Structures can show the parent of a compound that is named as a salt.

The test system of the first experiment is PDE4. The experiment is described as follows: PDE4 inhibition, cAMP fluorescence assay in salbutamol-stimulated U937 cells. The class given is cell-based, human. The settings on record: U937 cells, concentration 0.3 μM, salbutamol 1 μM. On the procedure:
Culture medium was changed every 2-3 days and always 24 hours before harvest. RPMI medium, FBS and Salbutamol were purchased from Sigma-Aldrich (USA). Rolipram was synthesized in the Medicinal Chemistry Department, Piramal Life Sciences Limited.
Rolipram was used as a standard (0.3, 1 and 3 μM). […] Fluorescence measurements were taken with Polarstar Optima (BMG Labtech-Germany).
Relative fluorescence was calculated using the following formula where: RF=Relative Fluorescence, Fo=fluorescent intensity of the blank or buffer control, F=fluorescence of cAMP or sample: RF=(Fo−F)/Fo
A standard curve was plotted using the RF values of the given standards and the values of cAMP corresponding to the test compounds were determined using the standard plot.
`COc1ccc(C2CNC(=O)C2)cc1OC1CCCC1` (centres unmarked) [Rolipram, reference compound]: the “Relative Fluorescence (RF)” value is listed as 1.39.

Still in this experiment, the particulars now being: U937 cells, concentration 1 μM, salbutamol 1 μM.
As for `COc1ccc(C2CNC(=O)C2)cc1OC1CCCC1` (centres unmarked) [Rolipram, reference compound], the “Relative Fluorescence (RF)” value came to 1.56.

The same experiment, now with this note: U937 cells, concentration 3 μM, salbutamol 1 μM.
Consider `COc1ccc(C2CNC(=O)C2)cc1OC1CCCC1` (centres unmarked) [Rolipram, reference compound], for which the “Relative Fluorescence (RF)” value came to 1.73.

The next experiment concerns TNF-α. Description: LPS-induced TNF-α release from hPBMCs (ELISA). Format: cell-based. The settings on record: Homo sapiens; LPS-stimulated hPBMCs, 5 hours; read-out: Activity (TNF-α) IC50. On the procedure: Cytokine production by lipopolysaccharides (LPS) in hPBMCs (human peripheral blood mononuclear cells) was measured as in reference, Physiol. Res. 2003, 52, 593-598, the disclosure of which is incorporated by reference for the teaching of the assay. Blood was collected from healthy donors into Potassium EDTA vacutainer tubes (BID vacutainer). The PBMC were isolated using gradient centrifugation in Histopaque-1077 solution (Sigma). Isolated PBMC were suspended in RPMI 1640 (Rosewell Park Memorial Institute) culture medium (Sigma-Aldrich Fine Chemicals, USA) containing 10% fetal bovine serum (FBS) (JRH, USA), 100 U/mL penicillin (Sigma Chemical Co. St Louis, Mo., USA) and 100 μg/mL streptomycin (Sigma Chemical Co. St Louis, Mo.). The cell concentration was adjusted to 1×10^6 cells/mL. The viability as determined by trypan blue dye exclusion was uniform Ly≧98%. The cell suspension (100 μL) was added to the wells of a 96-well culture plate. Following cell plating, 79 μL of the culture medium and 1 μL of various concentrations of test compounds (compounds of formula 1) (final concentration 0.001, 0.003, 0.005, 0.01, 0.025, 0.03, 0.05, 0.1, 0.25, 0.3 and 1 μM) dissolved in DMSO (dimethyl sulfoxide, Sigma, Mo., USA) were added to the cells. The final concentration of DMSO was adjusted to 0.5%. The vehicle (0.5% DMSO) was used as control. […] The plates were incubated for 30 minutes at 37° C. in an atmosphere of 5% CO2. Finally, 20 μL (10 μg/mL) per well of LPS, (Escherchia coli 0127:B8, Sigma Chemical Co., St. Louis, Mo.) was added to the wells of the incubated plates, for a final concentration of 1 μg/mL. The plates were incubated at 37° C. for 5 hours in an atmosphere of 5% CO2. […] Supernatants were harvested and assayed for TNF-α, IL-1β, IL-6 and IL-8 by ELISA as described by the manufacturer. (OptiEIA ELISA sets, BD Biosciences, Pharmingen). The 50% inhibitory concentration (IC50) values were calculated by a nonlinear regression method using GraphPad software (Prism 3.03).
Background: ELISA stands for enzyme-linked immunosorbent assay.
What is called IC50 is the concentration that inhibits the measured activity by half. Take `CN1CC[C@@H](c2c(O)cc(O)c3c(=O)cc(-c4ccc([N+](=O)[O-])cc4Cl)oc23)[C@@H]1CO` [Compound of example 5, (+)-trans-2-(2-Chloro-4-nitro-phenyl)-5,7-dihydroxy-8-(2-hydroxymethyl-1-methyl-pyrrolidin-3-yl)-chromen-4-one hydrochloride]: the IC50 was found to be 400 nM.
Take `CN1CC[C@@H](c2c(O)cc(O)c3c(=O)cc(-c4ccccc4Cl)oc23)[C@@H]1CO` [Compound of example 7, (+)-trans-2-(2-Chloro-phenyl)-5,7-dihydroxy-8-(2-hydroxymethyl-1-methyl-pyrrolidin-3-yl)-chromen-4-one hydrochloride]: the IC50 is 200 nM.
Consider `CN1CC[C@@H](c2c(O)cc(O)c3c(=O)cc(-c4cc(F)ccc4Br)oc23)[C@@H]1CO` [Compound of example 9, (+)-trans-2-(2-Bromo-5-fluoro-phenyl)-5,7-dihydroxy-8-(2-hydroxymethyl-1-methyl-pyrrolidin-3-yl)-chromen-4-one hydrochloride], for which the IC50 was 900 nM.
Still for that read-out and setting: then `CN1CC[C@@H](c2c(O)cc(O)c3c(=O)cc(-c4ccc(C#N)cc4Cl)oc23)[C@@H]1CO` [Compound of example 12, (+)-trans-2-(2-Chloro-4-cyano-phenyl)-5,7-dihydroxy-8-(2-hydroxymethyl-1-methyl-pyrrolidin-3-yl)-chromen-4-one hydrochloride], with 1500 nM; and `CN1CC[C@@H](c2c(O)cc(O)c3c(=O)cc(-c4ccc([N+](=O)[O-])cc4Br)oc23)[C@@H]1CO` [Compound of example 16, (+)-trans-2-(2-Bromo-4-nitro-phenyl)-5,7-dihydroxy-8-(2-hydroxymethyl-1-methyl-pyrrolidin-3-yl)-chromen-4-one hydrochloride], with 300 nM; and `CN1CC[C@@H](c2c(O)cc(O)c3c(=O)cc(-c4ccc(Cl)cc4Cl)oc23)[C@@H]1CO` [Compound of example 18, (+)-trans-2-(2,4-Dichloro-phenyl)-5,7-dihydroxy-8-(2-hydroxymethyl-1-methyl-pyrrolidin-3-yl)-chromen-4-one hydrochloride], with 300 nM.
For `CN1CC[C@@H](c2c(O)cc(O)c3c(=O)cc(-c4cc(F)ccc4Cl)oc23)[C@@H]1CO` [Compound of example 20, (+)-trans-2-(2-Chloro-5-fluoro-phenyl)-5,7-dihydroxy-8-(2-hydroxymethyl-1-methyl-pyrrolidin-3-yl)-chromen-4-one hydrochloride], the IC50 stood at 700 nM.
As to `CN1CC[C@@H](c2c(O)cc(O)c3c(=O)cc(-c4cccs4)oc23)[C@@H]1CO` [Compound of example 22, (+)-trans-5,7-Dihydroxy-8-(2-hydroxymethyl-1-methyl-pyrrolidin-3-yl)-2-thiophen-2-yl-chromen-4-one hydrochloride], the IC50 turned out to be 2300 nM.
As for `CN1CC[C@@H](c2c(O)cc(O)c3c(=O)cc(-c4cccc([N+](=O)[O-])c4)oc23)[C@@H]1CO` [Compound of example 26, (+)-trans-5,7-dihydroxy-8-(2-hydroxymethyl-1-methyl-pyrrolidin-3-yl)-2-(3-nitrophenyl)-chromen-4-one hydrochloride], the IC50 was 400 nM.
Regarding `CN1CC[C@@H](c2c(O)cc(O)c3c(=O)cc(-c4cccc(Br)c4Cl)oc23)[C@@H]1CO` [Compound of example 30, (+)-trans-2-(3-Bromo-2-chloro-phenyl)-5,7-dihydroxy-8-(2-hydroxymethyl-1-methyl-pyrrolidin-3-yl)-chromen-4-one hydrochloride], the IC50 is 4100 nM.
`CN1CC[C@@H](c2c(O)cc(O)c3c(=O)cc(-c4cccc(Cl)c4)oc23)[C@@H]1CO` [Compound of example 34, (+)-trans-2-(3-Chloro-phenyl)-5,7-dihydroxy-8-(2-hydroxymethyl-1-methyl-pyrrolidin-3-yl)-chromen-4-one hydrochloride]: the half-maximal inhibitory concentration (IC50) amounted to 2500 nM.
With `CN1CC[C@@H](c2c(O)cc(O)c3c(=O)cc(-c4cccc([N+](=O)[O-])c4Cl)oc23)[C@@H]1CO` [Compound of example 38, (+)-trans-2-(2-Chloro-3-nitro-phenyl)-5,7-dihydroxy-8-(2-hydroxymethyl-1-methyl-pyrrolidin-3-yl)-chromen-4-one hydrochloride], the concentration for half-maximal inhibition (IC50) turned out to be 1300 nM.
Same read-out and setting: then `CN1CC[C@@H](c2c(O)cc(O)c3c(=O)cc(-c4cccc(C(F)(F)F)c4Cl)oc23)[C@@H]1CO` [Compound of example 42, (+)-trans-2-(2-Chloro-3-trifluoromethyl-phenyl)-5,7-dihydroxy-8-(2-hydroxymethyl-1-methyl-pyrrolidin-3-yl)-chromen-4-one hydrochloride], with 2400 nM; and `Cc1cccc(-c2cc(=O)c3c(O)cc(O)c([C@@H]4CCN(C)[C@H]4CO)c3o2)c1Cl` [Compound of example 46, (+)-trans-2-(2-Chloro-3-methyl-phenyl)-5,7-dihydroxy-8-(2-hydroxymethyl-1-methyl-pyrrolidin-3-yl)-chromen-4-one hydrochloride], with 500 nM; and `CN1CC[C@@H](c2c(O)cc(O)c3c(=O)cc(-c4cccc(Cl)c4Cl)oc23)[C@@H]1CO` [Compound of example 58, (+)-trans-2-(2,3-Dichloro-phenyl)-5,7-dihydroxy-8-(2-hydroxymethyl-1-methyl-pyrrolidin-3-yl)-chromen-4-one hydrochloride], with 1500 nM.
In the case of `CN1CC[C@@H](c2c(O)cc(O)c3c(=O)cc(-c4cccc(I)c4Cl)oc23)[C@@H]1CO` [Compound of example 62, (+)-trans-2-(2-Chloro-3-iodo-phenyl)-5,7-dihydroxy-8-(2-hydroxymethyl-1-methyl-pyrrolidin-3-yl)-chromen-4-one hydrochloride], the IC50 was 1300 nM.
On the same count and under the same terms, for `CC(C)Nc1cccc(-c2cc(=O)c3c(O)cc(O)c([C@@H]4CCN(C)[C@H]4CO)c3o2)c1Cl` [Compound of example 66, (+)-trans-2-(2-Chloro-3-isopropylamino-phenyl)-5,7-dihydroxy-8-(2-hydroxymethyl-1-methyl-pyrrolidin-3-yl)-chromen-4-one hydrochloride] the value was 900 nM.
